From patent publication US6127339A, “Peptide for binding thereto a low density lipoprotein” (Asahi Kasei Kogyo Kabushiki Kaisha, priority 1995, dated 2000)
No end group written: not given here.

tested on: LDL; assay: Staining of peptide-bonded resin with biotinylated LDL in plasma (ABC method); assay type: binding; set-up: key: the peptide-bonded resins which were stained are indicated with "+ (plus)"; the peptide-bonded resins which were not stained are indicated with "- (minus)"; details: Table 1, peptide-bonded TG resin, room temperature 1 hour, peroxidase-streptoavidin/3,3'-diaminobenzidine
Procedure: With respect to the adsorbent comprising the water-insoluble carrier having bonded thereto the peptide, as a method for evaluating the binding ability (affinity) of the adsorbent for an LDL, there can be mentioned a method in which, after causing an LDL to be adsorbed on the adsorbent, the adsorbent having the LDL adsorbed thereon is subjected to staining (avidin-biotin complex method, that is, ABC method). Specifically, a biotinylated LDL is added to plasma, and the adsorbent is immersed in the plasma for a predetermined period of time. Then, the adsorbent is taken out of the plasma, and washed. Subsequently, the adsorbent is immersed in a horseradish peroxidase-labeled streptoavidin solution, and a solution of 3,3'-diamino benzidine, which is a substrate for the above-mentioned enzyme (horseradish peroxidase), is added thereto, thereby staining the adsorbent. The binding ability of the adsorbent for LDL is evaluated from the degree of the staining. With respect to methods for evaluating a binding ability for LDL, reference can be made to, for example, the following literature: S. M. Hsu, L. Raine, H. Fanger, J. Histchem. Cytochem., 29, 577 (1981); and H. Towbin, T. Staehelin, J. Gordon, Proc. Natl. Acad. Sci. U.S.A., 76, 4350 (1979).
The ability of each of the peptides to bind thereto an LDL was evaluated as follows. To a blood sample obtained from a healthy person was added a 3.8% aqueous solution of sodium citrate to thereby obtain a mixture. The obtained mixture was centrifuged to separate the blood sample into a blood cells component and a plasma component.
On the other hand, each of the above-mentioned polystyrene resins having bonded thereto the above-synthesized peptides was individually taken out from the synthesis reaction system and packed in a column having a filter (manufactured and sold by Bio-Rad laboratories, U.S.A.). Subsequently, the plasma-LDL mixture prepared above was added to the column, and the column was allowed to stand at room temperature for 1 hour. Then, the column was washed with a physiological saline containing 0.1% Tween 20 and sodium phosphate. After the washing, 1 ml of a horseradish peroxidase-labeled streptoavidine (0.2 ug/ml) solution containing 10% Block Ace (manufacturedand sold by Dainippon Pharmaceutical Co., Ltd., Japan) was added to the column, and the column was allowed to stand at room temperature for 30 minutes. Then, 1 ml of a 3,3'-diaminobenzidine tetrahydrochloride ([…]) solution containing 0.005% hydrogen peroxide was added to the column (by the addition of this solution, when a peptide-bonded resin contained in the column has the LDL bonded thereto, the resin is stained to assume brown color).
Results are shown in Table 1, wherein the peptide-bonded resins which were stained are indicated with "+ (plus)" and the peptide-bonded resins which were not stained are indicated with "- (minus)".
The ability of each of the peptides to bind thereto an LDL was evaluated in substantially the same manner as in Example 1.

| Substance | Stain |
| --- | --- |
| Comparative Example 1 Sample 5: comparative pentapeptide N1-N5 = M L T V R, bonded to TG polystyrene resin (MLTVR; not fully specified; printed as Met Leu Thr Val Arg) [reference compound] | - |
| Comparative Example 1 Sample 4: comparative pentapeptide N1-N5 = L T M K M, bonded to TG polystyrene resin (LTMKM; not fully specified; printed as Leu Thr Met Lys Met) [reference compound] | - |
| Example 1 Sample 2: pentapeptide N1-N5 = F K I W W, bonded to TG polystyrene resin (FKIWW; not fully specified; printed as Phe Lys Ile Trp Trp) | + |
| Comparative Example 1 Sample 2: comparative pentapeptide N1-N5 = P K S I N, bonded to TG polystyrene resin (PKSIN; not fully specified; printed as Pro Lys Ser Ile Asn) [reference compound] | - |
| Example 1 Sample 1: pentapeptide N1-N5 = R F Y Y M, bonded to TG polystyrene resin (RFYYM; not fully specified; printed as Arg Phe Tyr Tyr Met) | + |
| Example 1 Sample 3: pentapeptide N1-N5 = W Q R H F, bonded to TG polystyrene resin (WQRHF; not fully specified; printed as Trp Gln Arg His Phe) | + |
| Comparative Example 1 Sample 1: comparative pentapeptide N1-N5 = R A H I N, bonded to TG polystyrene resin (RAHIN; not fully specified; printed as Arg Ala His Ile Asn) [reference compound] | - |
| Comparative Example 1 Sample 3: comparative pentapeptide N1-N5 = L H R H L, bonded to TG polystyrene resin (LHRHL; not fully specified; printed as Leu His Arg His Leu) [reference compound] | - |

same assay, conditions: Table 2, peptide-bonded TG resin, same manner as Example 1

| Substance | Stain |
| --- | --- |
| Comparative Example 2 Sample 11: comparative pentapeptide N1-N5 = W V D H N, bonded to TG polystyrene resin (WVDHN; not fully specified; printed as Trp Val Asp His Asn) [reference compound] | - |
| Comparative Example 2 Sample 7: comparative pentapeptide N1-N5 = F G A I V, bonded to TG polystyrene resin (FGAIV; not fully specified; printed as Phe Gly Ala Ile Val) [reference compound] | - |
| Example 2 Sample 4: pentapeptide N1-N5 = R F W L F, bonded to TG polystyrene resin (RFWLF; not fully specified; printed as Arg Phe Trp Leu Phe) | + |
| Comparative Example 2 Sample 8: comparative pentapeptide N1-N5 = H A S N P, bonded to TG polystyrene resin (HASNP; not fully specified; printed as His Ala Ser Asn Pro) [reference compound] | - |
| Comparative Example 2 Sample 4: comparative pentapeptide N1-N5 = P N A F A, bonded to TG polystyrene resin (PNAFA; not fully specified; printed as Pro Asn Ala Phe Ala) [reference compound] | - |
| Comparative Example 2 Sample 12: comparative pentapeptide N1-N5 = E A K H E, bonded to TG polystyrene resin (EAKHE; not fully specified; printed as Glu Ala Lys His Glu) [reference compound] | - |
| Comparative Example 2 Sample 14: comparative pentapeptide N1-N5 = V E E M E, bonded to TG polystyrene resin (VEEME; not fully specified) [reference compound] | - |
| Example 2 Sample 14: pentapeptide N1-N5 = W L M W R, bonded to TG polystyrene resin (WLMWR; not fully specified; printed as Trp Leu Met Trp Arg) | + |
| Example 2 Sample 2: pentapeptide N1-N5 = F A Y R R, bonded to TG polystyrene resin (FAYRR; not fully specified; printed as Phe Ala Tyr Arg Arg) | + |
| Comparative Example 2 Sample 2: comparative pentapeptide N1-N5 = H Y Y L Q, bonded to TG polystyrene resin (HYYLQ; not fully specified; printed as His Tyr Tyr Leu Gln) [reference compound] | - |
| Example 2 Sample 5: pentapeptide N1-N5 = R Y A F W, bonded to TG polystyrene resin (RYAFW; not fully specified; printed as Arg Tyr Ala Phe Trp) | + |
| Example 2 Sample 6: pentapeptide N1-N5 = K H I Y W, bonded to TG polystyrene resin (KHIYW; not fully specified; printed as Lys His Ile Tyr Trp) | + |
| Comparative Example 2 Sample 5: comparative pentapeptide N1-N5 = H W V V H, bonded to TG polystyrene resin (HWVVH; not fully specified; printed as His Trp Val Val His) [reference compound] | - |
| Comparative Example 2 Sample 6: comparative pentapeptide N1-N5 = Y I Q V W, bonded to TG polystyrene resin (YIQVW; not fully specified; printed as Tyr Ile Gln Val Trp) [reference compound] | - |
| Comparative Example 2 Sample 9: comparative pentapeptide N1-N5 = E W S M T, bonded to TG polystyrene resin (EWSMT; not fully specified; printed as Glu Trp Ser Met Thr) [reference compound] | - |
| Comparative Example 2 Sample 13: comparative pentapeptide N1-N5 = F N F E S, bonded to TG polystyrene resin (FNFES; not fully specified; printed as Phe Asn Phe Glu Ser) [reference compound] | - |
| Comparative Example 2 Sample 1: comparative pentapeptide N1-N5 = T H R Q R, bonded to TG polystyrene resin (THRQR; not fully specified; printed as Thr His Arg Gln Arg) [reference compound] | - |
| Example 2 Sample 7: pentapeptide N1-N5 = W R Y D R, bonded to TG polystyrene resin (WRYDR; not fully specified; printed as Trp Arg Tyr Asp Arg) | + |
| Example 2 Sample 3: pentapeptide N1-N5 = R W I L Q, bonded to TG polystyrene resin (RWILQ; not fully specified; printed as Arg Trp Ile Leu Gln) | + |
| Example 2 Sample 13: pentapeptide N1-N5 = F L M R F, bonded to TG polystyrene resin (FLMRF; not fully specified; printed as Phe Leu Met Arg Phe) | + |
| Example 2 Sample 8: pentapeptide N1-N5 = L K W F Q, bonded to TG polystyrene resin (LKWFQ; not fully specified; printed as Leu Lys Trp Phe Gln) | + |
| Example 2 Sample 1: pentapeptide N1-N5 = W T A R R, bonded to TG polystyrene resin (WTARR; not fully specified; printed as Trp Thr Ala Arg Arg) | + |
